Measured values from publication PMC11879040, “Advancing systemic toxicity risk assessment: Evaluation of a NAM-based toolbox approach” (Toxicological Sciences, 2024).
Where two headings read alike, the source gives them in different places.

How the values were obtained:
[1] = target: T1, Monoamine oxidase type A, MAOA (r) (Rattus norvegicus, UniProt P21396); assay: IPP MAOA binding (antagonist radioligand); settings: IPP screening at 10 uM; control clorgyline
T1 sequence (P21396 1-526): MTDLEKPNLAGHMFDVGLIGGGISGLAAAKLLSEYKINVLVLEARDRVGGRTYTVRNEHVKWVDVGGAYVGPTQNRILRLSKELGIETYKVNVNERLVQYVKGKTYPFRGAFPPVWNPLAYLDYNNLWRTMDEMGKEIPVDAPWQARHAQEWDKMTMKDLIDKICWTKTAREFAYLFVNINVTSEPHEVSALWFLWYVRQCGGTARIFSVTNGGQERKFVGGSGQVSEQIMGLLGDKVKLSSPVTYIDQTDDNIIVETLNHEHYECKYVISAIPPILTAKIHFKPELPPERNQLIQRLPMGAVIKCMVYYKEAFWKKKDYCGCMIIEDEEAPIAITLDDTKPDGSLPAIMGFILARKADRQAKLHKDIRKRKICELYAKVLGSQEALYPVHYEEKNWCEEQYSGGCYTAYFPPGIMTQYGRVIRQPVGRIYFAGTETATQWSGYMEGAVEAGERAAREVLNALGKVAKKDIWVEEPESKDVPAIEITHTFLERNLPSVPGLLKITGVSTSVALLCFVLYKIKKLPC

[2] = Assignment of risk classifications to benchmark chemical-exposure scenarios; settings: for risk: from table S1
[3] = system: Sodium channel protein type 5 subunit alpha (site 2), SCN5A (r); assay type: binding, rat
[4] = target: T2, Cholecystokinin receptor type A, CCKAR (h) (Homo sapiens, UniProt P32238); assay: IPP CCKAR binding (agonist radioligand); settings: control CCK-8s
T2 sequence (P32238 1-428): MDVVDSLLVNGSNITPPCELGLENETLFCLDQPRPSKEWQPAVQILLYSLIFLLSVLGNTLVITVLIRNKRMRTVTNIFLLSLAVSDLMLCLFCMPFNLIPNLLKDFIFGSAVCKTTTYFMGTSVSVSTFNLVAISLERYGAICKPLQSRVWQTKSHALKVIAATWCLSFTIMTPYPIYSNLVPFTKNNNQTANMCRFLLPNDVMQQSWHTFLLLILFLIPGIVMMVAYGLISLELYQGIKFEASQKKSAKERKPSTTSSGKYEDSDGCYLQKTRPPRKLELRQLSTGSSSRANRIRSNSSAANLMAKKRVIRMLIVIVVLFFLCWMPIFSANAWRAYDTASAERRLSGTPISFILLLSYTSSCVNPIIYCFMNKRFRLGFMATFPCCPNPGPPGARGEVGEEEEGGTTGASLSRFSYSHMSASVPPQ

[5] = target: Histamine H1 receptor, HRH1 (h) (Homo sapiens, UniProt P35367); assay: IPP HRH1 binding (antagonist radioligand); settings: control pyrilamine
[6] = target: T3, Prostaglandin G/H synthase 2, PTGS2 (h) (Homo sapiens, UniProt P35354); assay: IPP PTGS2 enzymatic activity; assay type: biochemical; settings: control NS398
T3 sequence (P35354 18-604): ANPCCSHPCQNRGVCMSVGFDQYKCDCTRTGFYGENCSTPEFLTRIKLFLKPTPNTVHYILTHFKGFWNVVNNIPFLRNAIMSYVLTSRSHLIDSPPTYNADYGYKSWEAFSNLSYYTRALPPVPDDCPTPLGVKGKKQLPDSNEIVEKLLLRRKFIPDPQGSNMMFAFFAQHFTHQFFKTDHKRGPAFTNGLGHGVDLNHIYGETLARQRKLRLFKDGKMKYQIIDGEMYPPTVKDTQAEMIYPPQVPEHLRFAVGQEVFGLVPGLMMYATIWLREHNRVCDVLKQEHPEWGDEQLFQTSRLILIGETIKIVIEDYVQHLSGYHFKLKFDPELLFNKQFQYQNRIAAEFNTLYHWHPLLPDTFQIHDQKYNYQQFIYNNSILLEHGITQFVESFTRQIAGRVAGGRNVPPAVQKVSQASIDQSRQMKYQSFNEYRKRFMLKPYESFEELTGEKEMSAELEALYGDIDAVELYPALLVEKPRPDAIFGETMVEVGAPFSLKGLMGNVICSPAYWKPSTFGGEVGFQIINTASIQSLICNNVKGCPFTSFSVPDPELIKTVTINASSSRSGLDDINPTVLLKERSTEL

[7] = system: Thyroid hormone receptor alpha, THRA (h); assay: IPP THRA coactivator recruitment (agonist); assay type: biochemical, human
[8] = target: T4, Muscarinic acetylcholine receptor M3, CHRM3 (h) (Homo sapiens, UniProt P20309); assay type: binding; settings: 10 uM; ligand/control 4-DAMP
T4 construct: purchased Eurofins Cerep (SafetyScreen44-based IPP panel)

[9] = system: Glutamate receptor ionotropic NMDA 1 non-selective, GRIN1 (r)
[10] = target: Sodium-dependent noradrenaline transporter, SLC6A2 (h) (Homo sapiens, UniProt P23975); settings: ligand/control protriptyline
[11] = target: Mu-type opioid receptor, OPRM1 (h) (Homo sapiens, UniProt P35372); settings: control DAMGO
[12] = target: Sodium-dependent dopamine transporter, SLC6A3 (h) (Homo sapiens, UniProt Q01959); settings: control BTCP
[13] = target: Carbonic anhydrase II, CA2 (h) (Homo sapiens, UniProt P00918); assay: IPP CA2 enzymatic activity; assay type: biochemical; settings: 10 uM; control acetazolamide
[14] = target: Tyrosine-protein kinase Lck, LCK (h) (Homo sapiens, UniProt P06239); assay: IPP LCK enzymatic activity; assay type: biochemical; settings: IPP screening at 10 uM; control staurosporine
[15] = IPP screening at 10 uM, control CGS 19755

Mu-type opioid receptor, OPRM1 (h), sequence (P35372 whole entry): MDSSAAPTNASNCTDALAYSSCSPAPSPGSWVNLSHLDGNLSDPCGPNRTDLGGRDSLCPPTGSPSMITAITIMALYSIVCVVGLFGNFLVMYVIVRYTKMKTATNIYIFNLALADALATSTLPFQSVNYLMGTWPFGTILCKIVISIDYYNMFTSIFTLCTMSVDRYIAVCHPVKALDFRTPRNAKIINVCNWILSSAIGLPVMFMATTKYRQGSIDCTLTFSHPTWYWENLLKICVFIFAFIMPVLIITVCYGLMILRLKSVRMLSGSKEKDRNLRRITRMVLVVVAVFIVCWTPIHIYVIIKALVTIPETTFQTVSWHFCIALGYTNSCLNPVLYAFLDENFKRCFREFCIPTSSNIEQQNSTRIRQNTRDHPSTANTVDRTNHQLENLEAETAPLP
Histamine H1 receptor, HRH1 (h), sequence (P35367 whole entry): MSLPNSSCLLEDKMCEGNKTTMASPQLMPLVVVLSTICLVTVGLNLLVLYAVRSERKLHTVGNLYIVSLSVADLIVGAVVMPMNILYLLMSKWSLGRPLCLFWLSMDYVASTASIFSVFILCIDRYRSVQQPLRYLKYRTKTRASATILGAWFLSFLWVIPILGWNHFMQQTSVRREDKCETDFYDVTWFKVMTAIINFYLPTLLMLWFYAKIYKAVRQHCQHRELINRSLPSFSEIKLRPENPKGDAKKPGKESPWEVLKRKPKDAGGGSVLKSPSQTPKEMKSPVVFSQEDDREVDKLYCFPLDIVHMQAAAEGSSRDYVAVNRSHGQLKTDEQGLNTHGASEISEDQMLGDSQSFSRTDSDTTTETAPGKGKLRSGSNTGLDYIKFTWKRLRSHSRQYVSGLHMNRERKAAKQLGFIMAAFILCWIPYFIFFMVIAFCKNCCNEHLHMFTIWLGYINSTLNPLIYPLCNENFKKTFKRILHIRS
Sodium-dependent noradrenaline transporter, SLC6A2 (h), sequence (P23975 whole entry): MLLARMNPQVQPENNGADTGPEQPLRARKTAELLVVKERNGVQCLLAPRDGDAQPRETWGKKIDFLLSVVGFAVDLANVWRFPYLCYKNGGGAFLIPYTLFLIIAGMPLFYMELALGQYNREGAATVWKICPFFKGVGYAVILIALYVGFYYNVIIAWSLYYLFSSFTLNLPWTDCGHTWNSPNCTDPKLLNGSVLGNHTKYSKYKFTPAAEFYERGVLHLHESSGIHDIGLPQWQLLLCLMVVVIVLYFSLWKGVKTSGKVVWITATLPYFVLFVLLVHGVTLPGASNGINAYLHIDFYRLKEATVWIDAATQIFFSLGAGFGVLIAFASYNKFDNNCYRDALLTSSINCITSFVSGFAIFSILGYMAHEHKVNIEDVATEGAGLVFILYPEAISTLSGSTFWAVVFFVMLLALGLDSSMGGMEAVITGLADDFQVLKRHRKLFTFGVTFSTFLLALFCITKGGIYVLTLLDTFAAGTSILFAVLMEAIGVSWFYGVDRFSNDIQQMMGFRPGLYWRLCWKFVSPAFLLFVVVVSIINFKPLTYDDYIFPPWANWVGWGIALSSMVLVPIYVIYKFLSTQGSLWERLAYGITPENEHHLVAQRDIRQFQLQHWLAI
Tyrosine-protein kinase Lck, LCK (h), sequence (P06239 whole entry): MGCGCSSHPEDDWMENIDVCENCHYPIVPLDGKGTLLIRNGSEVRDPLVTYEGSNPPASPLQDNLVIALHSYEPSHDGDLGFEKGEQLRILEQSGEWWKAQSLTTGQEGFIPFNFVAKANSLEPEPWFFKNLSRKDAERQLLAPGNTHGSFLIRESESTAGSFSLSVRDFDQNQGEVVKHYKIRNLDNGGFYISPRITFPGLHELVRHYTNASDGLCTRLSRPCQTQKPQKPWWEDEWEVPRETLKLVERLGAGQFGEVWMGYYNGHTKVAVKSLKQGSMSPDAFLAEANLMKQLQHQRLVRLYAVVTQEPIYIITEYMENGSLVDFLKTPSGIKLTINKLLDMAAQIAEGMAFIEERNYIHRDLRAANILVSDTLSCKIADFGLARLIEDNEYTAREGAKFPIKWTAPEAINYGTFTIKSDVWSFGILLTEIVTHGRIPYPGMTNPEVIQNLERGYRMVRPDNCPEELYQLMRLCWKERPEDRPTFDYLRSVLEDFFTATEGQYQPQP
Sodium-dependent dopamine transporter, SLC6A3 (h), sequence (Q01959 whole entry): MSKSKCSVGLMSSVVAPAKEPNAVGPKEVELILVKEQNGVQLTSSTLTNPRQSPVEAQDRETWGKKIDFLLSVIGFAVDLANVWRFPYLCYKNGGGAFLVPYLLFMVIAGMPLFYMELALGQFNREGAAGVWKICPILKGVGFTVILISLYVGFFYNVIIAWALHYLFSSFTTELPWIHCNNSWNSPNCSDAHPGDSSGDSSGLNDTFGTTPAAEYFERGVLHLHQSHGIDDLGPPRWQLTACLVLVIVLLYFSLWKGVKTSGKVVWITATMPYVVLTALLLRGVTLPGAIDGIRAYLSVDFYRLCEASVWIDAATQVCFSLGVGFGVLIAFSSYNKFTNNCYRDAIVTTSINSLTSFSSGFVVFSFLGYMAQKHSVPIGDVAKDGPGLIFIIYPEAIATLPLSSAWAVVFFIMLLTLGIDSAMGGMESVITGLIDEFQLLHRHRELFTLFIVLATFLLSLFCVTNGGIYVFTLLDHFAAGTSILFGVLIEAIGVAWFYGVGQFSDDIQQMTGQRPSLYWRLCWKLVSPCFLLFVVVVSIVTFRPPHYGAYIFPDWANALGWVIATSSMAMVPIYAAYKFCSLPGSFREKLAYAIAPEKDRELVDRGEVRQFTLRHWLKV
T4 sequence (P20309 whole entry): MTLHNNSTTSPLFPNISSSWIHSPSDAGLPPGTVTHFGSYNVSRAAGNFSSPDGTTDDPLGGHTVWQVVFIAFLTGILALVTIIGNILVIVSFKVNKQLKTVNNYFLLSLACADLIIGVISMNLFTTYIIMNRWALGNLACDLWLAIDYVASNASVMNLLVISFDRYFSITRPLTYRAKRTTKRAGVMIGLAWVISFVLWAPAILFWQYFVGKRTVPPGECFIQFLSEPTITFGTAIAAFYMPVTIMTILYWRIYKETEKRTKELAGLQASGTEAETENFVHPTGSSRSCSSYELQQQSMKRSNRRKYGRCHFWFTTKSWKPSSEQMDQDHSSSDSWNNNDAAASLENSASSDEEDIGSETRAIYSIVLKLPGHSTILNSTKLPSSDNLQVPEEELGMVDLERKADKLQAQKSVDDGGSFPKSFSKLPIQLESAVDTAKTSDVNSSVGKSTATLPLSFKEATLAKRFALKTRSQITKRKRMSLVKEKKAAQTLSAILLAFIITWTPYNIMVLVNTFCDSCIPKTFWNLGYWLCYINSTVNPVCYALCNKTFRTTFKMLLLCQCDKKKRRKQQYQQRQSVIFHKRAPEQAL

Row | Compound | Specific binding [1] | Specific binding [3] | Specific binding ([4]; IPP screening at 10 uM) | Specific binding ([5]; IPP screening at 10 uM) | Enzymatic activity ([6]; IPP screening at 10 uM) | IPP screening %, Coactivator recruitment ([7]; 10 uM, agonist, T3) | IPP screening %, Specific binding [8] | Specific binding [9, 15] | IPP screening %, Specific binding ([10]; 10 uM) | Specific binding ([11]; IPP screening at 10 uM) | Specific binding ([12]; IPP screening at 10 uM) | IPP screening %, Enzymatic activity [13] | Enzymatic activity [14] | also measured
1 | CCOP(=S)(OCC)Oc1nc(Cl)c(Cl)cc1Cl [Chlorpyrifos, O,O-Diethyl O-(3,5,6-trichloropyridin-2-yl) phosphorothioate] | 3.1% | 13.4% | 55.2% | 17.6% | -4.1% | 2.0% | 5.8% | 0.2% | 63.4% | 29.9% | 34.7% | 5.1% | -7.4% | risk ([2]; Oral, 0.1 mg/kg, Tablet, Exp3): 1
2 | CC(C)(C)c1ccc(CCOc2ncnc3ccccc23)cc1 [Fenazaquin, 4-[2-(4-tert-Butylphenyl)ethoxy]quinazoline] | 8.2% |  | 60.9% | 37.0% | 0.8% | -1.0% | 11.5% | 0.6% | 69.3% | 16.1% | 65.2% | -0.2% | 3.3% | Risk Classification ([2]; Oral, residue, 0.005 mg/kg bw/day): Low risk; risk ([2]; Oral, 17% ADI 0.005 mg/kg bw/day, Food residue, Exp2): 0; risk ([2]; Oral, ADI 0.005 mg/kg bw/day, Food residue, Exp3): 0; Specific binding ([3]; IPP screening at 10 uM, control veratridine): 39.5%
3 | CC1(C)O[C@@H]2[C@@H](CO[C@@]3(COS(N)(=O)=O)OC(C)(C)O[C@@H]23)O1 [Topiramate, [(3aS,5aR,8aR,8bS)-2,2,7,7-Tetramethyltetrahydro-2H,3aH,7H-bis[1,3]dioxolo[4,5-b:4',5'-d]pyran-3a-yl]methyl sulfamate (non-preferred name)] |  |  |  |  |  |  |  |  |  |  |  |  |  | Risk Classification ([2]; Oral 50 mg/day): High risk; Risk Classification ([2]; Oral 500 mg/day): High risk; risk ([2]; Oral, High therapeutic, 500mg/day, Tablet, Exp1): 1; risk ([2]; Oral, Low therapeutic, 50mg/day, Tablet, Exp2): 1; Specific binding ([3]; IPP screening at 100 uM, control veratridine): 30.2%; Specific binding ([4]; IPP screening at 100 uM): 9.6%; Specific binding ([5]; IPP screening at 100 uM): 5.8%; Enzymatic activity ([6]; IPP screening at 100 uM): 4.1%; IPP screening %, Coactivator recruitment ([7]; 100 uM, agonist, T3, * denotes assay interference (2-Amino-6-chloro-4-nitrophenol, HC Red 3)): 0.0%; Specific binding ([9]; IPP screening at 100 uM, control CGS 19755): -5.1%; IPP screening %, Specific binding ([10]; 100 uM): 5.7%; Specific binding ([11]; IPP screening at 100 uM): 0.9%; Specific binding ([12]; IPP screening at 100 uM): 0.1%
4 | (4S,4aR,5S,5aR,6S,12aS)-4-(Dimethylamino)-3,5,6,10,12,12a-hexahydroxy-6-methyl-1,11-dioxo-1,4,4a,5,5a,6,11,12a-octahydrotetracene-2-carboxamide--hydrogen chloride (1/1) [Oxytetracycline hydrochloride] | 0.8% | 10.5% | 7.8% |  | 14.5% | 1.0% |  | 2.8% | -8.5% | 3.3% | -0.9% | 0.7% | -1.2% | 
5 | mixture of 2- and 3-tert-butyl-4-methoxyphenol [Butylated Hydroxyanisole] | 6.7% | 16.8% | 4.2% | -2.1% | 62.4% |  | -7.7% |  | 13.9% | 7.1% | 20.6% | -0.4% | 14.6% | IPP screening %, Coactivator recruitment [7]: 3.0%; Specific binding [9]: 2.2%
